Assay [1] deals with Stat3. The assay is described as follows: Stat3 DNA binding assay (EMSA) with HeLa nuclear extracts. In kind it is biochemical. The following applies: HeLa nuclear extract, FIG. 7A/7B. The protocol:
Electrophoretic mobility shift assay (EMSA) was performed as described by the manufacturer (Li-Cor Biosciences, Lincoln, Nebr.). Briefly, nuclear extracts were made from HeLa cells using the NucBuster Protein Extraction Kit as described by the manufacturer (EMD Biosciences, San Diego, Calif.). 5 μg of nuclear extract was pre-incubated with the indicated dose of indicated compound for 30 minutes prior to a 15-minute incubation with the IR700-labeled consensus Stat3 oligonucleotide. Samples were then electrophoresed on a polyacrylamide gel and directly scanned using the Odyssey infrared imaging system (Li-Cor Biosciences). For the enzyme-linked immunosorbent assay (ELISA), 5 μg of nuclear extract was preincubated with indicated concentration of indicated compound for 30 minutes prior to the addition of biotinylated oligo (5′-Biotin-[…]-3′, SEQ ID NO. 1). Stat3-DNA complexes were then captured on streptavidin coated 96 well plates (Pierce, Rockford, Ill.). Bound complexes were then incubated with Stat3 polyclonal antibody (Santa Cruz Biotechnology, Santa Cruz, Calif.) followed by anti-rabbit HRP conjugated secondary antibody (GE Healthcare, Pittsburgh, Pa.). Bound antibody was then visualized by addition of TMB substrate (Pierce) and absorbance measured at 450 nm,
Nuclear extracts from HeLa cells, which contain constitutively activated Stat3 as detected by phoshporylation at the tyrosine 705 residue, were used to perform Stat3 EMSAs to monitor Stat3 DNA binding activity. Nuclear extracts were incubated with indicated compound prior to incubation with IR700-labeled Stat3 consensus oligonucleotide. Binding of Stat3 to the oligonucleotide was monitored by gel electrophoresis and detection using a LiCor Odyssey infrared scanner.
On the technique in general: In EMSA bound probe runs differently from free probe, usually more slowly.

In assay [2] the test system is Stat3. The assay is described as follows: Stat3-luciferase (Stat3-Luc) reporter assay, OSM-stimulated HeLa cells. In kind it is cell-based. Conditions: FIG. 6. The method, then:
HeLa Cells were co-transfected with Stat3-luciferase (Stat3-Luc) reporter vector (Panomics, Fremont, Calif.) and Renilla luciferase (Promega, Madison, Wis.) using Lipofectamine 2000 as described by the manufacturer (Invitrogen). Following transfection, cells were maintained in medium containing 0.5% FBS for 24 hours. Cells were then treated with the indicated compound for 30 minutes prior to the addition of 25 ng/ml oncostatin M (OSM) (R&D Systems, Minneapolis, Minn.) to the medium. 6 hours following OSM addition, cells were harvested and levels of firefly and renilla luciferase were measured using the Dual-Glo Luciferase Assay System as described by the manufacturer (Promega).
Compounds were tested for their ability to inhibit Stat3 transcription activation activity in cells using a Stat3-luciferase (Stat3-luc) reporter construct. Cells transfected with Stat3-luc were cultured in reduced serum medium prior to addition of indicated compound for 30 minutes. Cells were then stimulated with 25 ng/ml oncostatin M (OSM) for 6 hours followed by detection of Stat3-luc reporter activity. […] AG490, a known inhibitor of the Jak-Stat pathway, was included as a positive control for Stat3 inhibition.
(In a reporter assay the amount or activity of a reporter protein is the signal.)

Assay [3] relates to SW480 non-side population (NSP) cells. The assay is described as follows: MTT cell viability, SW480 non-side population. Format: cell-based. The following applies: Homo sapiens, 48 h. The method, then:
(§1) To identify and isolate side population (SP) and non-SP fractions, SW480 cells were removed from the culture dish with trypsin and EDTA, pelleted by centrifugation, washed with phosphate-buffered saline (PBS), and resuspended at 37° C. in Dulbecco's modified Eagle's medium (DMEM) containing 2% FBS and 1 mM HEPES. The cells were then labeled with Hoechst 33342 (Invitrogen) at a concentration of 5 μg/mL. The labeled cells were incubated for 120 minutes at 37° C., either alone or with 50 μM verapamil (Sigma-Aldrich, St. Louis). After staining, the cells were suspended in Hanks' balanced saline solution (HBSS; Invitrogen) containing 2% FBS and 1 mM HEPES, passed a through 40 μm mesh filter, and maintained at 4° C. until flow cytometry analysis. The Hoechst dye was excited at 350 nm, and its fluorescence was measured at two wavelengths using a 450 DF10 (450/20 nm band-pass filter) and a 675LP (675 nm long-pass edge filter) optical filter. The gating on forward and side scatter was not stringent, and only debris was excluded,
For 3-(4,5 dimethylthiazol-2-yl)-2,5-diphenyltetrazolium (MTT) (Sigma-Aldrich, St. Louis, Mo.) analysis, cells were plated in 96 well plates at 10,000 cells per well. 24 hours after plating, compound was added to cells at indicated doses. […] The absorbance of each well was measured at 570 nm using a microplate reader. […]

Assay [4] relates to SW480 Hoechst SP cells. The assay is described as follows: MTT cell viability, SW480 Hoechst side population CSCs. Format: cell-based. The following applies: for IC50: Homo sapiens, SW480 Hoechst SP, 48 h. The method, then:
as §1
(§2) For 3-(4,5 dimethylthiazol-2-yl)-2,5-diphenyltetrazolium (MTT) (Sigma-Aldrich, St. Louis, Mo.) analysis, cells were plated in 96 well plates at 10,000 cells per well. 24 hours after plating, compound was added to cells at indicated doses. 22 hours following compound addition, MTT was added to each well (0.5 mg/ml, final concentration) and plates were incubated for an additional 2 hours at 37° C. Medium was then aspirated and the formazan product was solubilized in 100 μl of isopropyl alcohol. The absorbance of each well was measured at 570 nm using a microplate reader.
The IC50 of compound 401 against the Hoechst side population was accessed in MTT assays and was compared to the IC50 against the non-side population.
In addition, we tested the activities of several other compounds against cancer stem cells. Briefly, freshly isolated CSCs (SW480 Hoechst SP cells or CD44^high FaDu cells) were exposed to a dose range (30-0.117 μM) of compound for 48 h before examining cell viability by MTT assay. IC50s were estimated by plotting the percentage of surviving cells. As shown in Table 4 and Table 5, compounds of present invention can target cancer stem cells.

Assay [5] has as its system CD44^low FaDu cells. The assay is described as follows: MTT cell viability, CD44low FaDu cells. Format: cell-based. The following applies: Homo sapiens, 48 h.
For assay [6], the system named is CD44^high FaDu cells. The assay is described as follows: MTT cell viability, CD44high FaDu CSCs. Conditions: Homo sapiens, 48 h. In kind it is cell-based. The protocol: CD44^high cells were isolated by FACS according to the methods described in Ponti et al, with slight modification. Briefly, after trypsinization and recovery of cells for 30 minutes at 37° C. in growth media, cells were pelleted at 400×g and were resuspended in PBS with 2% FBS and 1 mM EDTA at 1×10^6 cells/mL. Cells were then incubated on ice with a 1:100 dilution of CD44-FITC (BD Biosicences, San Diego, Calif.) for 15 minutes. Alternatively, CD24-PE (BD Bioscences, San Diego, Calif.) (1:100) was utilized for negative selection. After washing three times, cells were resuspended at 2×10^6/mL and passed through a […] mesh before sorting.
as §2
In addition, we tested the activities of several other compounds against cancer stem cells. […]

For assay [7], the system named is Paca2 cells. The assay is described as follows: MTT cell viability Paca2. Format: cell-based. Conditions: PaCa-2; Paca2, Pancreas, MTT 24 hours. The method, then:
as §2
(§3) Cells plated in 96 well plates and treated with indicated compounds were subjected to MTT analysis at 24 hours following compound treatment to determine cell viability.

The subject of assay [8] is FaDu cells. The assay is described as follows: MTT cell viability FaDu. In kind it is cell-based. The following applies: Homo sapiens, Head and Neck, MTT 24 hours. The protocol:
as §2, §3

Assay [9] has as its system CD44^high CSCs. The assay is described as follows: Sphere assay with CD44high CSCs. Format: cell-based. The following applies: spheres grown 72 hours before challenge, FIGS. 10A and 10B. The method, then:
A reliable method of measuring the self-renewal capacity of cell population if the ability to be cultured as spheres in the absence of serum or attachment. CD44^high FaDu or Hoechst side population cancer stem cells were cultured in ultra low attachment plates in cancer stem cell media (DMEM/F12, B27 Neurobasal supplement, 20 ng/ml EGF, 10 ng/ml FGF, 4 μg/ml insulin, and 0.4% BSA) to allow spheres formation. Typically, sphere formation was evaluated by microscopy after 10-14 days in culture and spheres with >50 cells were scored.
One of the hallmarks cancer stem cells is their ability to self-renew. A reliable method of measuring the self-renewal capacity of cell populations is the ability to be cultured as spheres in the absence of serum or attachment. To compare the ability of compound 401 to other targeted and chemotherapeutic agents, FACS-isolated CD44^high CSCs were grown as spheres for 72 hours before being challenged with a panel of therapeutic agents. […] Tarceva, Sutent, and Gleevec were added at approximately three times their reported therapeutic concentrations.

In assay [10] the test system is SW480 cells. The assay is described as follows: Hoechst side population staining of SW480 cells. Format: cell-based. The following applies: treatment before Hoechst staining, FIG. 8A. The protocol:
as §1
To confirm that this side population is enriched with cancer stem cells, a control set of SW480 cells were first treated with Verapamil, an inhibitor of ABC transporters, before stained with Hoechst.

The text below walks through data of patent publication US20210024482A1, “Novel Group of STAT3 Pathway Inhibitors and Cancer Stem Cell Pathway Inhibitors” (Sumitomo Dainippon Pharma Oncology, Inc., priority 2007, published 2021).

For `CC(=O)c1cc2c(o1)C(=O)c1cc(Cl)ccc1C2=O` [Compound 416, 2-Acetyl-7-Chloro-naphtho[2,3-b]furan-4,9-dione], the “inhibition of Stat3 DNA binding activity” value in [1] is listed as “can inhibit Stat3's DNA binding activity”.
In the case of `CC(=O)c1cc2c(o1)C(=O)c1cc(F)ccc1C2=O` [Compound 418, 2-Acetyl-7-Fluoro-naphtho[2,3-b]furan-4,9-dione], in [1], the “inhibition of Stat3 DNA binding activity” value is “can inhibit Stat3's DNA binding activity”.
In the case of `O=C(c1ccccc1)c1cc2cc3ccccc3cc2s1` [Compound 1001, reference compound], in assay [2], the “inhibition of OSM-stimulated Stat3 reporter activity” value is on record as “did not inhibit OSM-stimulated Stat3 reporter activity even at a much higher concentration”.
Broadly, the IC50 is the point on the concentration scale where inhibition reaches its midpoint. A lower IC50 goes with higher potency. As for `C=C(OP(=O)(O)O)C1=CC2C(=O)c3ccccc3C(=O)C2O1` (stereo not drawn) [Compound 4011, phosphoric acid mono-[1-(4,9-dioxo-3a,4,9,9a-tetrahydro-naphtho[2,3-b]furan-2-yl)-vinyl] ester], the IC50 was determined as 0.34 µM in assay [3]; 0.38 µM in [4]; 0.42 µM in [5]; 0.27 µM in assay [6]; 0.446 µM in assay [7]; 0.353 µM in assay [8].
`C=C(OP(=O)(OC)OC)C1=CC2C(=O)c3ccccc3C(=O)C2O1` (stereo not drawn) [Compound 4012, phosphoric acid 1-(4,9-dioxo-3a,4,9,9a-tetrahydro-naphtho[2,3-b]furan-2-yl)-vinyl ester dimethyl ester]: the IC50 came to 0.81 µM in assay [3]; 0.57 µM in assay [4]; 0.76 µM in [5]; 1.05 µM in [6]; 1.04 µM in [8].
On to `COc1cccc2c1C(=O)c1c(O)c3c(c(O)c1C2=O)C[C@@](O)(C(=O)CO)C[C@@H]3O[C@H]1C[C@H](N)[C@H](O)[C@H](C)O1` [Doxorubicin, reference compound], for which the “sensitivity of side population compared to non-side population” value in assay [4] (FIG. 8B) is recorded as “the side population is much more resistant than the non-side population”. Also, the “prevention of sphere proliferation” value in [9] is “spheres were resistant”.
On to `COc1ccc(CCN(C)CCCC(C#N)(c2ccc(OC)c(OC)c2)C(C)C)cc1OC` (stereo not drawn) [Verapamil], for which the “effect on Hoechst side population” value in [10] is recorded as “loss of the side population”.
Regarding `CC(=O)O[C@@]12CO[C@@H]1C[C@H](O)[C@@]1(C)C(=O)[C@H](O)C3=C(C)[C@@H](OC(=O)[C@H](O)[C@@H](NC(=O)OC(C)(C)C)c4ccccc4)C[C@@](O)([C@@H](OC(=O)c4ccccc4)[C@H]21)C3(C)C` [docetaxel], the “prevention of sphere proliferation” value in assay [9] is given as “spheres were resistant”.
